From ChEMBL document CHEMBL4004785, “Spiro Meroterpenoids from Ganoderma applanatum” (J Nat Prod, 2017)

Target: T1, Tyrosine-protein kinase JAK3 (Homo sapiens, UniProt P52333)
T1 sequence (P52333 whole entry): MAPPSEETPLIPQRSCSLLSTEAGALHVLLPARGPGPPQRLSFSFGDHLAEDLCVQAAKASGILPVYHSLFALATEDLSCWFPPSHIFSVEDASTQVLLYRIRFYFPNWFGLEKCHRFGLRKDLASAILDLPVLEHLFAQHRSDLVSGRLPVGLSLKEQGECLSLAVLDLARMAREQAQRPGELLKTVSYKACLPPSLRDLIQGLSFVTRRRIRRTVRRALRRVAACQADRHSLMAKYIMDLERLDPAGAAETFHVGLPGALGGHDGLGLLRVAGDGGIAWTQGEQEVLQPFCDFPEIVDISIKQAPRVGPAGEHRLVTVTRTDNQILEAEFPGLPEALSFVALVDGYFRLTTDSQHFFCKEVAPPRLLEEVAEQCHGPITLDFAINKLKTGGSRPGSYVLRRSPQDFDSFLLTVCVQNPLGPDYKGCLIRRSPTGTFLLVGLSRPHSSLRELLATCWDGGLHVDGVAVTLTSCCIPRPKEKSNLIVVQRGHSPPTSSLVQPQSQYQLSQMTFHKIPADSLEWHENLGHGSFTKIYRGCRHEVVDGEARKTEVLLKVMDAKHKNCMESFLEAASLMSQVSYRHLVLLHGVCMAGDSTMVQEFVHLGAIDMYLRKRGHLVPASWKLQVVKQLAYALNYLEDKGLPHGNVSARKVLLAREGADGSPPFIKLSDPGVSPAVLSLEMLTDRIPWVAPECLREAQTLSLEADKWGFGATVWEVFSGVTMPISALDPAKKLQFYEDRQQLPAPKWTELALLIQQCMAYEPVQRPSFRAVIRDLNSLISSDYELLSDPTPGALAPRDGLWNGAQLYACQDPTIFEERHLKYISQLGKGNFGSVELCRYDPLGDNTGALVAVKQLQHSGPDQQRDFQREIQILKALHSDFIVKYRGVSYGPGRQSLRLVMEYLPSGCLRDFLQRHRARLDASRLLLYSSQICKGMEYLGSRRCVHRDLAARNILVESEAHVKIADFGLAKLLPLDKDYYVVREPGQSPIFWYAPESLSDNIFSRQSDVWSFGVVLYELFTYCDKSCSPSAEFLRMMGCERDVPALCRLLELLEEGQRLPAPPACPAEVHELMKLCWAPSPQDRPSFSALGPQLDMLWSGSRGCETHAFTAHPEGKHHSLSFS
Assay: Inhibition of human recombinant GST-tagged JAK3 cytoplasmic domain (781 to 1124 residues) expressed in baculovirus expression system incubated for 1 hr by FRET-based Z'-Lyte assay

IC50	SMILES
34.8 µM	O=CC1=CCC[C@@H](C(=O)O)[C@@]2(C1)Oc1ccc(O)cc1C2=O
7 µM	O=CC1=CCC[C@@H](C(=O)O)[C@]2(C1)Oc1ccc(O)cc1C2=O
